Results published in ChEMBL document CHEMBL1201862, “PubChem BioAssay data set” (2004).
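Cells were grown in 96-well plates and exposed to each compound for 48 hours at five concentrations; endpoints were interpolated linearly between bracketing concentrations, or set to the highest concentration if not reached. Here, GI50 denotes the concentration required for 50% inhibition of growth.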 The source made the active and inactive calls. No stated cut-off is given here; in the data, active = GI50 up to about 1.1 µM and inactive = higher.

Legend:
Assay in all cases: DTP human tumour cell line panel, 48 h
[1] = tested on: 786-0
[2] = tested on: A549
[3] = tested on: ACHN
[4] = tested on: CAKI-1
[5] = tested on: CCRF-CEM
[6] = tested on: COLO 205
[7] = tested on: DLD-1
[8] = tested on: DMS-114
[9] = tested on: DMS-273
[10] = tested on: EKVX
[11] = tested on: HCC 2998
[12] = tested on: HCT-15
[13] = tested on: HL-60
[14] = tested on: HOP-18
[15] = tested on: HOP-62
[16] = tested on: HOP-92
[17] = tested on: HT-29
[18] = tested on: K562
[19] = tested on: KM-20L2
[20] = tested on: KM12
[21] = tested on: LOX IMVI
[22] = tested on: LXFL 529
[23] = tested on: M14
[24] = tested on: MOLT-4
[25] = tested on: Malme-3M
[26] = tested on: NCI-H226
[27] = tested on: NCI-H23
[28] = tested on: NCI-H460
[29] = tested on: NCI-H522
[30] = tested on: OVCAR-3
[31] = tested on: OVCAR-4
[32] = tested on: OVCAR-5
[33] = tested on: OVCAR-8
[34] = tested on: RPMI-8226
[35] = tested on: RXF 393
[36] = tested on: SF-268
[37] = tested on: SF-295
[38] = tested on: SK-MEL-28
[39] = tested on: SK-MEL-2
[40] = tested on: SK-MEL-5
[41] = tested on: SK-OV-3
[42] = tested on: SN12C
[43] = tested on: SNB-19
[44] = tested on: SNB-75
[45] = tested on: SNB-78
[46] = tested on: SW-620
[47] = tested on: TK-10
[48] = tested on: U-251
[49] = tested on: UACC-257
[50] = tested on: UO-31
[51] = tested on: XF498
[52] = tested on: A498
[53] = tested on: HCT-116
[54] = tested on: IGROV-1
[55] = tested on: M19-MEL
[56] = tested on: MCF7
[57] = tested on: NCI/ADR-RES
[58] = tested on: SF-539
[59] = tested on: UACC-62

COc1ccc(C(=O)C(c2ccc(OC)cc2)C2(O)C(=O)Nc3c(Cl)cc(Cl)cc32)cc1 (centres undefined)
GI50 [1]: 14300 nM (inactive) | GI50 [2]: 24200 nM (inactive) | GI50 [3]: 22800 nM (inactive) | GI50 [4]: 19100 nM (inactive) | GI50 [5]: 15600 nM (inactive) | GI50 [6]: 29400 nM (inactive) | GI50 [7]: 19200 nM (inactive) | GI50 [8]: 18400 nM (inactive) | GI50 [9]: 16300 nM (inactive) | GI50 [10]: 18700 nM (inactive) | GI50 [11]: > 10000 nM (inactive) | GI50 [12]: 21500 nM | GI50 [13]: 4680 nM (inactive) | GI50 [14]: 20100 nM (inactive) | GI50 [15]: 23800 nM (inactive) | GI50 [16]: 15300 nM (inactive) | GI50 [17]: 19400 nM (inactive) | GI50 [18]: 16600 nM (inactive) | GI50 [19]: 21100 nM (inactive) | GI50 [20]: 17800 nM (inactive) | GI50 [21]: 19300 nM (inactive) | GI50 [22]: 15000 nM (inactive) | GI50 [23]: 16900 nM (inactive) | GI50 [24]: 9350 nM (inactive) | GI50 [25]: 15500 nM (inactive) | GI50 [26]: 18400 nM (inactive) | GI50 [27]: 19500 nM (inactive) | GI50 [28]: 20700 nM (inactive) | GI50 [29]: 18200 nM (inactive) | GI50 [30]: 22800 nM (inactive) | GI50 [31]: 6340 nM (inactive) | GI50 [32]: 20100 nM (inactive) | GI50 [33]: 23700 nM (inactive) | GI50 [34]: 11900 nM (inactive) | GI50 [35]: 22300 nM (inactive) | GI50 [36]: 33800 nM (inactive) | GI50 [37]: 19300 nM (inactive) | GI50 [38]: 22300 nM (inactive) | GI50 [39]: 14100 nM (inactive) | GI50 [40]: 18500 nM (inactive) | GI50 [41]: 50700 nM (inactive) | GI50 [42]: 18700 nM (inactive) | GI50 [43]: 23800 nM (inactive) | GI50 [44]: 22900 nM (inactive) | GI50 [45]: 18300 nM (inactive) | GI50 [46]: 17600 nM (inactive) | GI50 [47]: 22500 nM (inactive) | GI50 [48]: 33100 nM (inactive) | GI50 [49]: 17300 nM (inactive) | GI50 [50]: 27700 nM (inactive) | GI50 [51]: 22400 nM (inactive)

CC1[C@@H]2CC=C3C4CCC5Cc6nc7c(nc6C[C@@]5(C)C4CC(=O)[C@]32CO[C@@]1(O)C(O)CC(C)(C)O)CC1CCC2C3=C[C@H]4O[C@@]5(O[C@@](C)(CO)C[C@@H]5O)C(C)[C@@]4(O)[C@]3(C)[C@@H](O)CC2[C@]1(C)C7 (some centres undefined)
GI50 [52]: 1.08 nM (active) | GI50 [2]: 3.1 nM (active) | GI50 [4]: 13.2 nM (active) | GI50 [5]: 0.753 nM (active) | GI50 [6]: 15 nM (active) | GI50 [7]: 111 nM (active) | GI50 [8]: 0.513 nM (active) | GI50 [9]: < 0.36 nM (active) | GI50 [10]: 0.386 nM (active) | GI50 [11]: 24.3 nM (active) | GI50 [53]: 23 nM (active) | GI50 [12]: 15 nM | GI50 [13]: < 0.36 nM (active) | GI50 [14]: 269 nM (active) | GI50 [15]: 0.495 nM (active) | GI50 [16]: 4.1 nM (active) | GI50 [17]: 4.59 nM (active) | GI50 [54]: 10.1 nM (active) | GI50 [18]: 11.2 nM (active) | GI50 [19]: 6.9 nM (active) | GI50 [20]: 18.1 nM (active) | GI50 [21]: 6.9 nM (active) | GI50 [55]: 237 nM (active) | GI50 [56]: 10.9 nM (active) | GI50 [24]: 1.57 nM (active) | GI50 [25]: 16.6 nM (active) | GI50 [26]: 6.22 nM (active) | GI50 [27]: 3.08 nM (active) | GI50 [28]: 1.51 nM (active) | GI50 [29]: 45.5 nM (active) | GI50 [57]: 612 nM (active) | GI50 [30]: 491 nM (active) | GI50 [31]: 431 nM (active) | GI50 [32]: 7.73 nM (active) | GI50 [33]: 127 nM (active) | GI50 [34]: < 0.36 nM (active) | GI50 [35]: < 0.36 nM (active) | GI50 [36]: 6.76 nM (active) | GI50 [37]: < 0.36 nM (active) | GI50 [58]: 2.01 nM (active) | GI50 [39]: 7.75 nM (active) | GI50 [40]: 10.2 nM (active) | GI50 [41]: 1.84 nM (active) | GI50 [42]: 274 nM (active) | GI50 [43]: 36.6 nM (active) | GI50 [44]: < 0.36 nM (active) | GI50 [45]: 1.46 nM (active) | GI50 [46]: 9.33 nM (active) | GI50 [48]: < 0.36 nM (active) | GI50 [49]: 49.1 nM (active) | GI50 [59]: 3.81 nM (active) | GI50 [50]: 25.9 nM (active) | GI50 [51]: 2.42 nM (active)
